These results are taken from patent US6428816B1, “Carotenoid agent for inhibiting the conversion of epithelial cells to tumors” (Cognis Australia Pty., Ltd., priority 1992, dated 2002).

Entries after “also recorded” stand apart in the source; their conditions may differ.

One assay concerns c-jun. Briefly: Northern analysis of c-jun RNA in melanocytes exposed to UV-B. The following applies: for decrease of C-jun induction versus irradiated melanocytes in complete medium (TPA and IBMX) / RNA levels in the absence of the factor: FIG. 9; for decrease of C-jun induction versus irradiated melanocytes in complete medium (TPA and IBMX): medium without the factor (TPA 10 ng/ml or IBMX 0.1 mM) 24 hours, 100 mJ/cm^2 UVB, 1 hour after irradiation; for RNA levels in the absence of the factor: melanocytes not exposed to UVB. The class given is cell-based, human. From the text:
Ultra-violet (“UV”) radiation can cause severe damage to cells, including genetic mutations, the promotion of cancer, and other adverse conditions. The potentially harmful effects for UV radiation for humans are mainly due to the UVB spectrum (ie, radiation having a wavelength of between 290 and 320 nanometers) (See: […], Soler N A Staff J S and Mihm M C Jr: “The human sunburn reaction: histologic and biochemical studies” J, Am. […] Another form of UV radiation is called “UVC”. UVC radiation in sunlight typically has a wavelength of the order of 254 nanometers. It is not as biologically relevant as UVB radiation however, because th UVC radiation in sunlight is strongly absorbed by the earth's ozone layer. accordingly, in the present study, we investigated the effects of UVB irradiation by melanocytes, and the changes to those effects by treating those cells with carotenoids. UVC wavelengths were blocked out of the experiments as the cells were incubated in plastic vessels. […] Wavelengths shorter than 280 nm wee cut off by keeping lids on tissue culture dishes. […] Total RNA was isolated by detergent lysis followed by phenol-chloroform extraction and ethanol precipitation. 15 micrograms of RNA was size-fractionated on denaturing formaldehyde/agarose gels and transferred to nylon filters by capillary blotting. […] After hybridization, filters were washed to a stringency of 0.5-0.1X SSC at 60° C. and autoradiographed at -80° C. for three to ten days using Fuji film. Autoradiographs are quantitated by densitometry using the GS-365 software (Hoefer Scientific). […] The c-fos probe was a 1.8 kb Xbo 1/Eco R I fragment from the plasmid BK 28 (Verma, 1988). The 185 probe was isolated by an EcoRI digest and isolation of the 5.6 kb fragment from the plasmid pB (Gonzalez, 1988). […] The 0.05 hour time indicates cells were harvested within 3 minutes following UV-B exposure. A “control” group received precisely the same treatment as the “treated” group, with the exception of being treated with beta-carotene.

Assay [1] deals with normal human melanocytes. Briefly: DNA synthesis by tritiated thymidine incorporation in normal human melanocytes. Type of assay: cell-based. The following applies: for effect on DNA synthesis (percent tritiated thymidine incorporation): no UV. Here is the method:
FIGS. 1 and 5 refer to “Percent Tritiated Thymidine Incorporation” which is a measure of DNA synthesis activity.
(§1) Human neonatal foreskins were placed in 0.25% trypsin at 4° C. overnight. Following this incubation, the tissue was scraped to recover the melanocytes. The melanocytes were cultured in MCDB 151 (Sigma) medium containing 2% fetal calf serum, 0.3% bovine pituitary extract (Clonetics Corp.), 10 nanograms/ml TPA, 2 mM CaCl2, 5 micrograms/ml insulin and 0.1 mM IBMX (Sigma).
(§2) Cells were harvested with 0.25% trypsin and counted on a Coulter Counter (Coulter Instruments). Viability was determined by trypan blue exclusion. DNA synthesis was measured by labelling with (methyl-^3H)-thymidine (2.5 mCi/ml, 20 Ci/mmol, DuPont-New England Nuclear) added to the medium during the last 4 hours of incubation. Melanocytes were harvested using a Ph.D. cell harvester (Cambridge Research Inc.). the amount of radioactivity incorporated was determined by liquid scintillation counting (LS5000TD. Beckman Instruments).
(§3) Normal human melanocytes were seeded into the appropriate vessel (6 well plate, 96 well plate, 75 cm or 175 cm flask) and allowed to grow to 50-60% confluency. […] The 0.05 hour time indicates cells were harvested within 3 minutes following UV-B exposure.
Background: Uptake of a labelled nucleoside into DNA is a usual measure of proliferation.

Assay [2] relates to normal human melanocytes. Conditions: FIG. 2; 500 mJ/cm^2 UV-B; up to 24 hours after irradiation. Here is the method: as §1, §2, §3
The next assay concerns c-fos. Briefly: Northern analysis of c-fos RNA in melanocytes exposed to UV-B. The class given is cell-based, human. Here is the method: as §3
A further assay concerns NF Kappa B. Briefly: Gel mobility shift assay of NF Kappa B DNA binding activity in nuclear extracts of UV-B irradiated melanocytes. Type of assay: cell-based, human. Here is the method: In summary, gel mobility shift assay using a NF Kappa B consensus sequence was performed to determine DNA binding activity of nuclear extracts from four normal Caucasian melanocyte (NCM) lines.
Cells were grown to approximately 50-60% confluency and treated as described in the experimental protocol described in section (i) below. The cells were allowed to swell in hypotonic buffer (10 mM HEPES, pH 7.8, 0.1 mM EDTA, 10 mM KCC, 1 mM DTT. PMSF for 15 minutes on ice). Cytosolic protein fraction was obtained after the addition of Nonider P-40 to a final concentration of 0.5% and separation from the nuclei by centrifugation (500×g. for 5 minutes). Nuclear proteins were extracted from the remaining pellet by dialysis with hypertonic buffer ([…], pH 7.9, 350 mM NaCl, 1 Mm DTT, 1 mM PMSF) for 2 hours at 10° C. Isolated nuclear protein was frozen and stored at −80° C. Quantitation was calculated from optical density readings of 230, 260 and 320 wavelengths.
Five microgram samples of each extract were incubated with 10,000 cpm of a ^32p-labelled consensus oligonucleotide of NF Kappa B. Following a 1 hour incubation, samples were electrophoresed in a low ionic strength polyacrylamide gel. Quantitation of protein; DNA complexes was accomplished by densitometry.
as §3

Setting [3] is: FIG. 6, 1 ug/ml for 24 hours, then 100 or 500 mJ/cm^2 UV-B, four melanocyte lines.

`CC(C)Cn1c(=O)n(C)c(=O)c2[nH]cnc21` [IBMX, 3-Isobutyl 1-Methyl Xanthine]: in the assay on c-jun, the “decrease of C-jun induction versus irradiated melanocytes in complete medium (TPA and IBMX)” value is listed as “approximately 50%”; the “RNA levels in the absence of the factor” value is on record as “unaffected”.
Consider `CCCCCCCCCCCCCC(=O)O[C@@H]1[C@@H](C)[C@@]2(O)[C@@H](C=C(CO)C[C@]3(O)C(=O)C(C)=C[C@@H]23)[C@H]2C(C)(C)[C@]12OC(C)=O` [TPA, O-Tetradecanoylphorbol 13-acetate], for which, in the assay on c-jun, the “decrease of C-jun induction versus irradiated melanocytes in complete medium (TPA and IBMX)” value was “approximately 50%”; the “RNA levels in the absence of the factor” value is reported as “unaffected”.
Broadly, the inhibition is the percentage by which the read-out fell short of the control. For the molecule `CC1=C(/C=C/C(C)=C/C=C/C(C)=C/C=C/C=C(C)/C=C/C=C(C)/C=C/C2=C(C)CCCC2(C)C)C(C)(C)CCC1` [beta-carotene], the “effect on DNA synthesis (percent tritiated thymidine incorporation)” value in the assay with normal human melanocytes [1] (FIG. 1, highest beta-carotene dose, 24 hours incubation) is recorded as “largely inhibited”; in the assay on normal human melanocytes [1] (FIG. 1, lower beta-carotene doses, 24 hours incubation) it was “little or no effect”. In addition, in the assay on normal human melanocytes [1] (FIG. 1, pre-treatment dose, 1.0 microgram/ml or 10 μg/ml, 24 hours incubation), the “effect on DNA synthesis at the chosen pre-treatment dose” value is reported as “minimal effect”. Moreover, the “effect of pre-treatment on DNA synthesis after UV-B” value with normal human melanocytes [1] (FIG. 4, 4 hours after irradiation, 400 mJ/cm^2 of UV-B) is “not seen”. The “effect of pre-treatment on DNA synthesis (tritiated thymidine incorporation) after UV-B” value in the assay on normal human melanocytes [1] (FIG. 4, 24 hours following 400 mJ/cm^2 of UV-B) was “increased”. Also, in the assay with normal human melanocytes [2], the “persistence of the viability increase over the time course” value is listed as “remained for the duration of the time course”. Further, in the assay on c-fos (FIG. 3, 500 mJ/cm^2 UV-B, beta-carotene pre-treatment), the “effect on induction of c-fos by UV-B” value is given as “essentially blocked”. Moreover, the “effect on UVB-induced C-fos expression” value in the assay on c-fos (setting [3]) is reported as “did not alter”. Further, the “effect on induction of c-jun by UV-B” value in the assay on c-jun (FIG. 3, 24 hours following 500 mJ/cm^2 UV-B irradiation) is “completely blocked”. Further, the “increase of c-jun expression by beta-carotene” value in the assay on c-jun (FIG. 3, four hours following 500 mJ/cm^2 UV-B irradiation) was found to be 11.1 fold. In the assay with c-jun (setting [3]), the “effect on UVB-induced C-jun expression” value is given as “only a slight effect”. For the same molecule, the “effect on NF kappa B DNA binding activity” value in the assay with NF Kappa B (FIG. 7, 100 mJ/cm^2 UV-B) is recorded as “slightly decreased; also recorded: moderate effect”. In addition, the inhibition at 1 µg/mL in the assay on NF Kappa B (Homo sapiens, Melanocyte, light or radiation study, FIG. 8, 500 mJ/cm^2 UV-B, first hour following irradiation, 1.0 ug/ml pre-treatment 24 hours) is over 50%. Besides, the “protective effect of pre-treatment (NF Kappa B complex)” value with NF Kappa B (one hour following UVB irradiation at 500 mJ/cm^2, p value less than 0.05, Student's t-test) was “statistically significant protective effect”.
